Measurements taken from ChEMBL document CHEMBL1137887, “Application of the Stille coupling reaction to the synthesis of C2-substituted endo-exo unsaturated pyrrolo[2,1-c][1,4]benzodiazepines (PBDs)” (2004).

test system: Panel NCI-60 (60 carcinoma cell lines); experiment: In vitro mean of concentrations that inhibits cell growth across 60 cell lines of the NCI panel after incubation for 48 hr at 37 degree C was measured using SRB assay; type: functional; settings: Homo sapiens

Compared with C=CC1=CN2C(=O)c3cc(OC)c(OC)cc3N=C[C@@H]2C1, COc1cc2c(cc1OC)C(=O)N1C=CC[C@H]1C=N2 is 11-fold higher in GI50: 120 nM for the first, 1280 nM for the second.

COc1cc2c(cc1OC)C(=O)N1C=C(c3ccccc3)C[C@H]1C=N2 and COc1cc2c(cc1OC)C(=O)N1C=C(C#Cc3ccccc3)C[C@H]1C=N2 cannot be ordered by GI50: under 10 nM for the first, under 10 nM for the second.

Going from COc1cc2c(cc1OC)C(=O)N1C=C(c3ccco3)C[C@H]1C=N2 to COc1cc2c(cc1OC)C(=O)N1C=C(c3cccs3)C[C@H]1C=N2, the GI50 rises from under 10 nM to 20 nM.

COc1cc2c(cc1OC)C(=O)N1CCC[C@H]1C=N2 was tested, and the GI50 was 2390 nM.
